Experimental data reported in ChEMBL document CHEMBL3507680, “University of Dundee, Gates Library screen for HepG2 cell viability”.

Test: Human HepG2 cell viability assay in 384 well format
Format: toxicity, cell-based
Parameters: dose 125 nL, time 70.5 hour; concentration not given beside the values
Conditions: HepG2 cells, read-out: Inhibition

Structure (SMILES) | cytotoxicity at 70.5 h [%]
CN(Cc1ccc(CCC(C)(C)O)cc1)CC1(CO)CC1 | -10.9
CCCN1CCc2[nH]cnc2C12CCN(C(=O)CCn1cccn1)CC2 | -2.96
COCCC(=O)N1CC2(CCN(Cc3ccccc3Cl)CC2)C1 | 12.5
Cc1cc(C)c(CNC(=O)N2CCNC(=O)C2)c(=O)[nH]1 | -4.49
Cc1ccc2[nH]c(CN3CC[C@@H](N4CCN(C)CC4)[C@H](O)C3)c(C)c2c1 | -6.53
O=C(NCC1CC1)c1cc2c(s1)CCN2c1ncccn1 | -0.353
CC(Nc1ccn(CCS(C)(=O)=O)n1)c1ccc(C#N)cc1 (stereo not given) | -1.96
CCCc1n[nH]c(C2CN(C(=O)c3ccnc(C4CC4)n3)CCO2)n1 (stereo not given) | -1.45
CC(Cn1cccn1)NC(=O)c1cccs1 (stereo not given) | -9.89
O=C(NCC1CCCO1)c1nc2c(s1)CCCN2c1ncccn1 (stereo not given) | 24.3
CN1CCC(CNC(=O)c2cccc(CN3CCCCCC3)c2)C1 (stereo not given) | -5.88
Cc1nc(CN2CCCN(C(=O)c3sccc3C#N)CC2)cs1 | 0.736
CN1CCCC2(CCN(c3cccc(C#N)n3)C2)C1=O (stereo not given) | -8.81
O=C(c1coc(-c2ccccc2)n1)N1CCS(=O)(=O)CC1 | -3.26
Cc1ccccc1C1CCCN1Cc1nc2c(cnn2C)c(=O)[nH]1 (stereo not given) | -9.08
Cc1nc(C(C)(C)C)sc1C(=O)NCCNc1ncccc1C#N | -7.48
NC(=O)c1ccc(CN2CCCC(N3CCCC3)C2)cc1 (stereo not given) | -7.14
CNc1ncc(CN(C)c2nc(C)c3ccc(S(C)(=O)=O)cc3n2)cn1 | -6.87
CC(C(=O)NC1CC1)S(=O)(=O)Cc1noc(C(C)(C)C)n1 (stereo not given) | -1.87
C=C(C)Cn1ccc2cc(OC)c(F)cc2c1=O | -2.43
CC(=O)NCCC1CCN(c2nc(C(C)(C)C)nc3c2cnn3C)CC1 | -1.1
COc1cccc(-c2ccc(CNC(=O)c3ccc(=O)n(C)c3)cc2)c1 | 6.19
COc1ncc(C)cc1NC(=O)COc1ccccc1F | 11.7

Structure (SMILES) | cytotoxicity at 70.5 h [%]
Cc1cccc(-c2ccc(C(=O)N3CCSCC3)c(=O)[nH]2)c1 | 0.198
O=C(O)c1ccccc1C1CCN(C2Cc3ccccc3C2)C1 (stereo not given) | -1.24
Cn1cc(C[C@H]2[C@H](N3CCOCC3)CCN2C(=O)c2ccoc2)cn1 | -16.3
O=C(CCOCC(F)(F)F)NS(=O)(=O)c1cccnc1 | -3.03
CNC(=O)c1nc2c(s1)CCN(C(=O)c1ccccc1)CC2 | -9.7
COc1ccncc1NC(=O)C1(c2ccc(F)cc2)CCC1 | -6.62
CC(C)c1csc(C2CCCN(C(=O)c3ccc(=O)n(C)n3)C2)n1 (stereo not given) | 1.7
CC(NC(=O)c1ccoc1)c1ccc2c(c1)CCC(=O)N2 (stereo not given) | -0.0886
Cc1cc(CN2C[C@@H]3COC[C@H](C(=O)N4CCCCO4)[C@@H]3C2)oc1C | -11
Cc1c(C(C)NC(=O)Nc2ccc(F)c(F)c2)cnn1C (stereo not given) | -3.96
CN(Cc1ccco1)C(=O)CN1CCN(C)c2ccccc2C1 | -3
O=C(NCCn1cccn1)c1ccn(-c2cccc(F)c2)n1 | -11.4
CCNC(=O)c1ccnc(N2CCCC(COc3ccccc3C)C2)c1 (stereo not given) | -21.9
NC(=O)CN1C(=O)CO[C@H]2CN(Cc3ccc(F)c(F)c3)C[C@H]21 | -3.9
Cc1ccccc1CC(=O)N1CC[C@@](O)(CNS(C)(=O)=O)[C@H](O)C1 | 0.727
Cc1nc(CNCC2CCCN(C(=O)OC(C)(C)C)C2)cs1 (stereo not given) | 27.5
Cc1ncccc1CNc1ccc(OCCO)nc1 | -6.19
COc1ccc(C(=O)N2CCOC3(CNCCOC3)C2)c(OC)n1 (stereo not given) | 28
CC(C)Oc1ccccc1C(=O)NCCc1nncn1C | -6.83
CC(C)S(=O)(=O)C(C)C(=O)NCc1cccc(N2CCCCC2=O)c1 (stereo not given) | 13.6
CCCc1nc(C)c(C(=O)NCCn2ccnc2)s1 | -7.16
COc1cccc(CNCc2ccccc2Cl)c1O | 26.4
CC1CCCN(CCCNC(=O)c2cn(C)nc2-c2cccnc2)C1 (stereo not given) | -2.34

Structure (SMILES) | cytotoxicity at 70.5 h [%]
CC(O)CC(C)(C)CNC(=O)NCc1cccc(-n2cncn2)c1 (stereo not given) | -7.73
COc1ccccc1NC(=O)c1cc2c([nH]c1=O)CCCC2=O | -11.1
CC(=O)c1cnc(NCCc2csc(-c3cnccn3)n2)nc1C | -10.8
Cc1nc(C)c(C(=O)N2CCCC(C(=O)c3nccn3C)C2)s1 (stereo not given) | -2.4
N#CCCN(Cc1ccco1)C(=O)COC1CCCCC1 | 21.5
COc1cc2[nH]c(C(=O)O)cc2c(OC)c1C | -5.57
COc1ccccc1C(=O)N1CCCC1c1nncn1CC(C)C (stereo not given) | -0.719
Cc1cc(NCc2csc(-c3ccsc3)n2)no1 | 0.878
Cc1cc(C(=O)CN2CCN(c3ncccn3)CC2)c(C)n1C(C)C | 12.3
Cc1cc(CN2CCOC(C)(C(=O)N3CCOCC3)C2)no1 (stereo not given) | -2.61
Cc1csc([C@H]2C[C@@H]3CCN(Cc4cc(C)on4)C[C@H]3O2)n1 | -5.27
O=C(N1CCC(Nc2cccnn2)CC1)C1(c2ccc(F)cc2)CC1 | -6.39
CCC(=O)NCCCn1c(-c2cccnc2C)cc2cccnc21 | -1.81
N#CC1COCCN1S(=O)(=O)c1ccc2c(c1)CCC2 (stereo not given) | -8.31
CCN(CC(F)(F)F)C(=O)C1CCCN(Cc2ccccn2)C1 (stereo not given) | -3.97
CCc1[nH]ncc1C(=O)N1CCCC(n2cncn2)C1 (stereo not given) | 1.79
Cc1ccc(F)c(OC2(C(=O)O)CCN(C(=O)N3CCCC3)CC2)c1 | -9.12
CCCn1[nH]c(CNc2ccccc2)nc1=O | -2.36
Cc1cc(C)n(CC2CCCN2Cc2cscn2)n1 (stereo not given) | 5.49
Cc1nsc(NCc2ccc(CS(=O)(=O)NC(C)C)cc2)n1 | -9.39
Cc1nn(C)c(C)c1CNC(=O)CCn1ncc2c(Cl)cccc21 | -1.2
COc1cccc(-n2nnc(C(=O)N3CCOC(C)C3)c2C)c1 (stereo not given) | -1.7
c1cnc(-c2nc(CNC3CCc4ncnn4C3)cs2)nc1 (stereo not given) | -6.68

Structure (SMILES) | cytotoxicity at 70.5 h [%]
CS(=O)(=O)N1CCc2ccc(=O)n(CCN3CCCC3)c2CC1 | -6.85
O=C(CCc1cccs1)NCC1CCCN1c1cccnn1 (stereo not given) | 3.16
COc1ccc(-n2nnc(C(=O)NC(C)C)c2C2CC2)cc1 | -6.86
COCCCN1CCC(N(Cc2noc(C)n2)C(C)=O)C1 (stereo not given) | -5.67
O=C1OCCN1CCCN1CCCC1c1ccc(O)cc1 (stereo not given) | -3.89
CCOC(C)c1nc(CN2CCC(NC(C)C)CC2)cs1 (stereo not given) | -2.82
Cn1ncc2c(=O)[nH]c(CN3CCCC3c3ccsc3)nc21 (stereo not given) | -7.44
CC(C)Cc1nc(CN(C)CCOc2ccccc2F)no1 | 12.5
CC(OCC(F)(F)F)C(=O)Nc1ccc(-n2cncn2)nc1 (stereo not given) | -12.6
CC(C)CN1CC2(CCN(C(=O)c3nc4ncccn4n3)CC2)CC1=O | -17.1
COCC(=O)N1CCCCC1c1ccnc(Nc2ncc(C)s2)n1 (stereo not given) | -0.578
COc1c(CNC2CCOc3ccccc32)c(C)nn1C (stereo not given) | -4.19
COc1nn(C)c2c1CCCN(S(=O)(=O)c1cccc(F)c1)C2 | -4.75
Cc1nc[nH]c1CN1C[C@@H]2CC[C@H](C1)N(C(=O)CCc1cnn(C)c1)C2 | -1.54
Cc1ccc(C(=O)N2CCC3(CCN3Cc3ccc(F)cc3)C2)cn1 (stereo not given) | -8.15
CN1C(=O)[C@H]2CC[C@@H]1CN(C(=O)Nc1ccccc1C(F)(F)F)C2 | -4.06
Cc1nc(-c2ccnn2C)cc(C2CCCN(S(C)(=O)=O)C2)n1 (stereo not given) | -6.24
CC(=O)N1CCOC(Cc2cccc(C(F)(F)F)c2)C1 (stereo not given) | -4.91
Cc1nc2[nH]cc(C(=O)N3CCCCC3c3ccc(F)cc3)c(=O)n2n1 (stereo not given) | 3.11
Cc1cc(C)n(C2CCCN(C(=O)CN(C)c3cnccn3)C2)n1 (stereo not given) | -0.822
CN1CCN(C(=O)c2cc3sccc3n2Cc2ccccc2Cl)CC1 | -6.69
CC(C(=O)O)N1CC2(CCC1=O)CCN(CCSc1ccccc1)CC2 (stereo not given) | -13.8
NCc1n[nH]c(=O)n1-c1ccccc1Oc1ccccc1 | 9.56

Structure (SMILES) | cytotoxicity at 70.5 h [%]
Cc1nnc(CN(C)CC(=O)NC(C)(C)c2ccc(F)cc2)n1C | -6.19
COc1ccc(C(C)N(C)Cc2c(C(C)C)[nH]c3ncccc23)cc1 (stereo not given) | 20.8
C[C@@H]1CN(CCOCc2ccccc2)CC[C@@]1(O)C1CCC1 | 37.7
CCc1nccn1C1CCCN(C(=O)c2ccc(-n3ccnc3)cc2)C1 (stereo not given) | -10.5
CCc1noc(C2CCCCN2C(=O)c2cc(C)oc2C)n1 (stereo not given) | 11.6
O=S1(=O)COCCN1CCCOc1ccc(F)cc1 | 22.1
COc1cc(-n2cc(CCO)cn2)ccc1NC(C)=O | -9.17
Cc1ncc(C)c(N2Cc3cnn(Cc4ccc(F)cc4)c3C2)n1 | 13
Cc1cnc2c(S(=O)(=O)NCC3CCS(=O)(=O)C3)cccc2c1 (stereo not given) | 51.3
CCC(O)CN1CCN(C(=O)Cc2cc(Cl)ccc2OC)CC1 (stereo not given) | -8.81
Cc1cc2c(o1)CC(C)(C)CC2NC(=O)CNC(=O)C1CC1 (stereo not given) | -2.04
COc1ccc([C@@H]2CN(Cc3ccncc3)C[C@H]2N(C)C)cc1 | -9.42
O=C(O)c1cnc(N2CCCC2)nc1COc1ccccc1 | -2.71
COC(=O)CCn1ccc(=O)c2cc(OC)ccc21 | -0.582
CC(C)Oc1ccccc1NC(=O)N1CCC(n2cncn2)CC1 | -3.08
N#CCCn1nc(C(F)(F)F)c2c1CCC2 | -2.44
CC(C)c1nnc(CN(C)C(c2ccc(F)cc2)c2cccnc2)o1 (stereo not given) | -2.85
CC(C)C(NC(=O)NCCNc1cnccn1)c1cccs1 (stereo not given) | -11.6
Cc1nc2n(n1)CC(Nc1ncnc3c1CCC3)CC2 (stereo not given) | -10.2
N#Cc1ncn(Cc2c(F)cccc2Cl)n1 | -5.34
CCOc1ccccc1CNC(=O)Cn1ccc2c(C)nn(C)c2c1=O | -5.58
COc1ccccc1C(=O)N(C)Cc1nnc2ccccn12 | -14
CC(C)C(=O)N(C)Cc1nc(N2CCCC2)ncc1-c1ccncc1 | -6.45
